# Laboratory results as given in ChEMBL document CHEMBL3817752, “Antimycobacterial activity of new N(1)-[1-[1-aryl-3-[4-(1H-imidazol-1-yl)phenyl]-3-oxo]propyl]-pyridine-2-carboxamidrazone derivatives” (Bioorg Med Chem Lett, 2016).
# Active and inactive are the calls of the source. The calls are words filed in the database; no cut-off is given here.
# Legend:
# [1] = Cytotoxicity against African green monkey Vero cells after 72 hrs by MTT assay; assay type: cell-based; details: chlorocebus sabaeus
# Mycobacterium kansasii = experiment: Antimycobacterial activity against Mycobacterium kansasii NCTC 10268 after 7 days by resazurin microtiter assay; assay type: functional; details: NCTC 10268, 168 h
# Mycobacterium gordonae = experiment: Antimycobacterial activity against Mycobacterium gordonae NCTC 10267 after 7 days by resazurin microtiter assay; assay type: functional; details: NCTC 10267, 168 h
# Mycobacterium marinum = experiment: Antimycobacterial activity against Mycobacterium marinum CIP 6423 after 7 days by resazurin microtiter assay; assay type: functional; details: CIP 6423, 168 h
# [2] = system: Mycobacterium intracellulare; experiment: Antimycobacterial activity against Mycobacterium intracellulare NCTC 10425 after 7 days by resazurin microtiter assay; assay type: functional; details: NCTC 10425, 168 h
# [3] = system: Mycobacterium scrofulaceum; experiment: Antimycobacterial activity against Mycobacterium scrofulaceum NCTC 10803 after 7 days by resazurin microtiter assay; assay type: functional; details: 168 h
# Mycobacterium avium = experiment: Antimycobacterial activity against Mycobacterium avium NCTC 08559 after 7 days by resazurin microtiter assay; assay type: functional; details: NCTC 08559, 168 h
# Candida albicans = experiment: Antimicrobial activity against Candida albicans 685 clinical isolate at 20 ug per disk after 18 to 24 hrs by agar diffusion assay; assay type: functional; details: read-out: DIZ
# Staphylococcus aureus = experiment: Antimicrobial activity against Staphylococcus aureus ATCC 25923 at 20 ug per disk after 18 to 24 hrs by agar diffusion assay; assay type: functional; details: read-out: DIZ
# [4] = biological target: T1, Sterol 14alpha-demethylase (Mycobacterium tuberculosis) (UniProt P9WPP9); experiment: Binding affinity to N-terminal His-tagged Mycobacterium tuberculosis H37Rv ATCC 25618 CYP51 expressed in Escherichia coli Rosetta (DE3) by spectrophotometric analysis
# T1 sequence (whole entry): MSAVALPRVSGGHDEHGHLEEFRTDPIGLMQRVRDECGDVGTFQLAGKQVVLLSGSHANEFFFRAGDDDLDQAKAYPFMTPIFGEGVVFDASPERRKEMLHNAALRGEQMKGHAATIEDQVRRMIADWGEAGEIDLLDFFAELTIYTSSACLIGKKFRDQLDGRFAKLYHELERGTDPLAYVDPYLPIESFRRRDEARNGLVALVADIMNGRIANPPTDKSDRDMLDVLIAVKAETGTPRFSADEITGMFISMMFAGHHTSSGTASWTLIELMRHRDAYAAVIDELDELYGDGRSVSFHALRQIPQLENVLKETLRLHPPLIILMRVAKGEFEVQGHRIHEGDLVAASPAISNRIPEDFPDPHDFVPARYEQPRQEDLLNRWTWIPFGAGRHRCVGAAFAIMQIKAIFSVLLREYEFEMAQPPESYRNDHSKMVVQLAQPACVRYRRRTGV
# Escherichia coli = experiment: Antimicrobial activity against Escherichia coli ATCC 25922 at 20 ug per disk after 18 to 24 hrs by agar diffusion assay; assay type: functional; details: read-out: DIZ
# [5] = system: Mycobacterium tuberculosis; experiment: Antimycobacterial activity against Mycobacterium tuberculosis H37Ra […] after 7 days by resazurin microtiter assay; assay type: functional; details: 168 h
Compound,CC50 at 72 h [1] [µM],MIC (Mycobacterium kansasii) [µM],MIC (Mycobacterium gordonae) [µM],MIC (Mycobacterium marinum) [µM],MIC [2] [µM],MIC [3] [µM],MIC (Mycobacterium avium) [µM],zone of inhibition at 20 µg/disc (Candida albicans) [mm],zone of inhibition at 20 µg/disc (Staphylococcus aureus) [mm],Activity [4],zone of inhibition at 20 µg/disc (Escherichia coli) [mm],MIC [5] [µM]
N/C(=N/NC(CC(=O)c1ccc(-n2ccnc2)cc1)c1cccc(Cl)c1)c1ccccn1 (configuration not stated),68.6,9,4.5,18,72,18,72,11,22,inactive,7,18
N/C(=N/NC(CC(=O)c1ccc(-n2ccnc2)cc1)c1ccccc1Br)c1ccccn1 (configuration not stated),29,16.3,8.2,16.3,131,16.3,65.4,8,19,inactive,5,32.7
N/C(=N/NC(CC(=O)c1ccc(-n2ccnc2)cc1)c1ccccc1Cl)c1ccccn1 (configuration not stated),53.2,18,18,18,144,18,72,7,20,inactive,6,36
N/C(=N/NC(CC(=O)c1ccc(-n2ccnc2)cc1)c1cccc(F)c1)c1ccccn1 (configuration not stated),26.5,9.3,2.3,18.7,74.7,9.3,74.7,11,16,inactive,7,4.7
NNC(=O)c1ccncc1 [ISONIAZID],> 7000,,116,116,> 467,116,116,,,,,0.9
N/C(=N/NC(CC(=O)c1ccc(-n2ccnc2)cc1)c1cccc([N+](=O)[O-])c1)c1ccccn1 (configuration not stated),28.7,8.8,8.8,35.1,> 140,8.8,140,10,13,inactive,5,4.4
Clc1ccc(COC(Cn2ccnc2)c2ccc(Cl)cc2Cl)cc1 (configuration not stated),,,,,,,,,,Active,,
N/C(=N/NC(CC(=O)c1ccc(-n2ccnc2)cc1)c1ccc([N+](=O)[O-])cc1)c1ccccn1 (configuration not stated),23.1,35.1,8.8,35.1,> 140,8.8,140,5,13,inactive,5,4.4
N/C(=N/NC(CC(=O)c1ccc(-n2ccnc2)cc1)c1cccc(Br)c1)c1ccccn1 (configuration not stated),51.3,16.3,2,16.3,131,32.7,131,13,19,inactive,8,16.3
